Laboratory results reported in the supplement of paper PMC11665569.

What was measured:
H1373 = settings: treatment time: 5 days
Method: (§1)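 CCK-8 viability of KRAS G12C-mutant cancer cell lines transfected with control, YAP/TAZ or TEAD1-4 siRNAs and treated with KRAS G12C inhibitors for 5 days; IC50 fitted in Prism after normalising absorbance at 450 nm to vehicle control.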

H1792 = settings: siRNA knockdown (Con = control): Con; treatment time: 5 days
Method: as §1

H2030 = settings: treatment time: 5 days
Method: as §1

H358 = settings: treatment time: 5 days
Method: as §1

KYSE410 = settings: treatment time: 5 days
Method: as §1

MIAPACA2 = settings: treatment time: 5 days
Method: as §1

SW1573 [1] = settings: treatment time: 5 days
Method: as §1

SW1573 [2] = experiment: relative viability (fraction of vehicle control); higher = more viable / less inhibited; settings: treatment time: 5 days
Method: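 CCK-8 viability of SW1573 cells transfected with control, YAP/TAZ or TEAD1-4 siRNAs and treated with KRAS G12C inhibitors for 5 days. Values are normalised to vehicle control.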

C=CC(=O)N1CCN(c2nc(=O)n(-c3c(C)ccnc3C(C)C)c3nc(-c4c(O)cccc4F)c(F)cc23)[C@@H](C)C1 [AMG510]
Settings	IC50 (cell viability, 5 days) [nM]	relative viability
H358, siRNA knockdown (Con = control): Con	7.18	–
H358, siRNA knockdown (Con = control): TEAD1234_si1	4.08	–
H358, siRNA knockdown (Con = control): TEAD1234_si2	4.17	–
H358, siRNA knockdown (Con = control): YAP_WWTR1_si1	4.08	–
H358, siRNA knockdown (Con = control): YAP_WWTR1_si2	2.96	–
H1373, siRNA knockdown (Con = control): Con	30.7	–
H1373, siRNA knockdown (Con = control): YAP_WWTR1_si1	10.2	–
H1373, siRNA knockdown (Con = control): YAP_WWTR1_si2	4.31	–
H2030, siRNA knockdown (Con = control): TEAD1234_si2	10.9	–
H2030, siRNA knockdown (Con = control): YAP_WWTR1_si1	8.18	–
KYSE410, siRNA knockdown (Con = control): Con	3540	–
KYSE410, siRNA knockdown (Con = control): TEAD1234_si1	853	–
KYSE410, siRNA knockdown (Con = control): YAP_WWTR1_si1	163	–
KYSE410, siRNA knockdown (Con = control): YAP_WWTR1_si2	33.5	–
MIAPACA2, siRNA knockdown (Con = control): Con	163	–
MIAPACA2, siRNA knockdown (Con = control): TEAD1234_si1	66.1	–
MIAPACA2, siRNA knockdown (Con = control): TEAD1234_si2	57.5	–
MIAPACA2, siRNA knockdown (Con = control): YAP_WWTR1_si1	46.3	–
MIAPACA2, siRNA knockdown (Con = control): YAP_WWTR1_si2	69.9	–
SW1573 [1], siRNA knockdown (Con = control): Con	12300	–
SW1573 [1], siRNA knockdown (Con = control): TEAD1234_si1	10.9	–
SW1573 [1], siRNA knockdown (Con = control): TEAD1234_si2	4.11	–
SW1573 [1], siRNA knockdown (Con = control): YAP_WWTR1_si1	2.87	–
SW1573 [1], siRNA knockdown (Con = control): YAP_WWTR1_si2	3.42	–
SW1573 [2], log10 concentration (uM): 0, siRNA knockdown: TEAD1-4 siRNA 1	–	0.313
SW1573 [2], log10 concentration (uM): 0, siRNA knockdown: TEAD1-4 siRNA 2	–	0.433
SW1573 [2], log10 concentration (uM): 0, siRNA knockdown: YAP/TAZ siRNA 1	–	0.262
SW1573 [2], log10 concentration (uM): 0, siRNA knockdown: YAP/TAZ siRNA 2	–	0.182
SW1573 [2], log10 concentration (uM): 0, siRNA knockdown: negative control siRNA	–	0.809
SW1573 [2], log10 concentration (uM): 1, siRNA knockdown: TEAD1-4 siRNA 1	–	0.397
SW1573 [2], log10 concentration (uM): 1, siRNA knockdown: TEAD1-4 siRNA 2	–	0.515
SW1573 [2], log10 concentration (uM): 1, siRNA knockdown: YAP/TAZ siRNA 1	–	0.554
SW1573 [2], log10 concentration (uM): 1, siRNA knockdown: YAP/TAZ siRNA 2	–	0.357
SW1573 [2], log10 concentration (uM): 1, siRNA knockdown: negative control siRNA	–	0.782
SW1573 [2], log10 concentration (uM): 1.301029996, siRNA knockdown: TEAD1-4 siRNA 1	–	0.138
SW1573 [2], log10 concentration (uM): 1.301029996, siRNA knockdown: TEAD1-4 siRNA 2	–	0.288
SW1573 [2], log10 concentration (uM): 1.301029996, siRNA knockdown: YAP/TAZ siRNA 1	–	0.337
SW1573 [2], log10 concentration (uM): 1.301029996, siRNA knockdown: YAP/TAZ siRNA 2	–	0.257
SW1573 [2], log10 concentration (uM): 1.301029996, siRNA knockdown: negative control siRNA	–	0.461
SW1573 [2], log10 concentration (uM): -1, siRNA knockdown: TEAD1-4 siRNA 1	–	0.338
SW1573 [2], log10 concentration (uM): -1, siRNA knockdown: TEAD1-4 siRNA 2	–	0.365
SW1573 [2], log10 concentration (uM): -1, siRNA knockdown: YAP/TAZ siRNA 1	–	0.164
SW1573 [2], log10 concentration (uM): -1, siRNA knockdown: YAP/TAZ siRNA 2	–	0.111
SW1573 [2], log10 concentration (uM): -1, siRNA knockdown: negative control siRNA	–	0.783
SW1573 [2], log10 concentration (uM): -1.30103, siRNA knockdown: TEAD1-4 siRNA 1	–	0.346
SW1573 [2], log10 concentration (uM): -1.30103, siRNA knockdown: TEAD1-4 siRNA 2	–	0.421
SW1573 [2], log10 concentration (uM): -1.30103, siRNA knockdown: YAP/TAZ siRNA 1	–	0.183
SW1573 [2], log10 concentration (uM): -1.30103, siRNA knockdown: YAP/TAZ siRNA 2	–	0.147
SW1573 [2], log10 concentration (uM): -1.30103, siRNA knockdown: negative control siRNA	–	0.792
SW1573 [2], log10 concentration (uM): -2, siRNA knockdown: TEAD1-4 siRNA 1	–	0.562
SW1573 [2], log10 concentration (uM): -2, siRNA knockdown: TEAD1-4 siRNA 2	–	0.502
SW1573 [2], log10 concentration (uM): -2, siRNA knockdown: YAP/TAZ siRNA 1	–	0.323
SW1573 [2], log10 concentration (uM): -2, siRNA knockdown: YAP/TAZ siRNA 2	–	0.244
SW1573 [2], log10 concentration (uM): -2, siRNA knockdown: negative control siRNA	–	0.886
SW1573 [2], log10 concentration (uM): -2.30103, siRNA knockdown: TEAD1-4 siRNA 1	–	0.672
SW1573 [2], log10 concentration (uM): -2.30103, siRNA knockdown: TEAD1-4 siRNA 2	–	0.725

Settings	IC50 (cell viability, 5 days) [nM]
H1792	6330
